Results as given in patent US9821027B2, “Method for regenerating cartilage comprising applying a monovalent metal salt of alginic acid and SDF-1” (Mochida Pharmaceutical Co., Ltd., priority 2011, dated 2017).

What was measured:
[1] = tested on: bone marrow mesenchymal stromal cells (BMSC); experiment: BMSC differentiation into chondrocytes in alginic acid gel beads; format: cell-based, Japanese white rabbit; conditions: 10 μg/ml SDF-1 or 250 μg/ml AMD3100 in alginic acid gel beads vs alginic acid only, 28 days
Experimental: (§1) Bone marrows were collected from a tibia of a 15-week-old Japanese white rabbit to isolate and culture bone marrow mesenchymal stromal cells (BMSC). Isolation was carried out according to the method of Wakitani et al. (Wakitani S et al., J bone Joint Surg Am, Vol. 76, p 579, 1994). The isolated cells were incubated at 37° C. under humidified 5% CO2 and maintained in monolayer culture.
(§2) Proliferation and differentiation of BMSC were tested by embedding BMSC in alginic acid gel beads. The cells were suspended in a 2% sodium alginate solution. The suspension was dripped in a CaCl2 solution with a pipette for gelation. Ten minutes later, the resulting microcapsules were washed twice with Ca/Mg-free PBS and once with DMED-HG. The resulting beads contained 1×10^6 cells per 40 μl of beads.
Differentiation into chondrocytes in the alginic acid gel beads was tested by culturing BMSC-containing beads in a DMED-HG medium containing 100 μg/ml sodium pyruvate (ICN Biomedicals, Aurora, Ohio), 40 μg/ml proline (ICN Biomedicals), 50 μg/ml ascorbate-2-phosphate (Wako, Osaka, Japan), 1×10^−7M dexamethasone (ICN Biomedicals), 1% ITS plus mix (Sigma-Aldrich, St. Louis., Mo.), 1% antibiotics and 10 ng/ml recombinant human transforming growth factor […] (R&D Systems, Minneapolis, Minn.) (dissolved with 4 mM HCl containing 1 μg/ml bovine serum albumin) for 28 days. The medium was exchanged every three days. […]

[2] = tested on: bone marrow mesenchymal stromal cells (BMSC); experiment: BMSC proliferation in alginic acid gel beads (Cell Counting Kit-8); format: cell-based, Japanese white rabbit; conditions: 10 μg/ml SDF-1 or 250 μg/ml AMD3100 in alginic acid gel beads vs alginic acid only, up to 7 days, n=5
Experimental: as §1, §2
The alginic acid gel beads containing 10 μg/ml of SDF-1 or 250 μg/ml of AMD3100 were cultured in DMED-HG containing 10% FBS and 1% antibiotics for 3 hours, 1 day, 2 days, 3 days and 7 days. The cells collected from the alginic acid gel beads were washed with PBS for three times, incubated in 50 mM EDTA (Gibco BRL laboratories) at 37° C. under 5% CO2. Ten minutes later, the cells were centrifuged at 1,500 g for 5 minutes for cell collection and the number of live cells was counted with Cell Counting Kit-8 (Dojindo Laboratories, Tokyo, Japan).

c1cc(CN2CCCNCCNCCCNCC2)ccc1CN1CCCNCCNCCCNCC1 [AMD3100]
differentiation of BMSC into chondrocytes [1]: no difference
BMSC proliferation (number of live cells) [2]: no significant difference
